Measured values: US20240343755A1, “STABLE ISOQUINOLINE-CORTICOSTEROID CONJUGATES AND USES THEREOF” (priority 2021, published 2024)
Counter-ions that a name gives are not always drawn. Like-named read-outs stand apart in the source and are kept apart here.

What was measured:
[1] = system: corneal epithelium debridement in C57/B1/6 mice; test: In vivo PK/PD ocular surface corneal wound healing model; conditions: 0.1% E5 in SBEβCD
Experimental: E5 was formulated in 3.5% sulfobutylether-β-cyclodextrin (SBEβCD), 10 mM PBS, pH 6 and filtered with a 0.2 μm PVDF filter.
Anesthetized animals (8-10 weeks old male C57/B1/6 mice) were placed under a dissecting microscope and eyes proposed. Corneas of OD eyes were demarcated by centrally, and softly, marking the perimeters of the debridement area with a 2 mm trephine. A 10 μL drop of PBS was placed on the eye and an Algerbrush with a 0.5 mm burr attachment was utilized to carefully remove the epithelium within the demarcated area of the cornea. Topical fluorescein (Sigma) was applied, and excess fluorescein flushed prior to capture of a baseline image of the wound (time=0). Topical treatments were administered at t=0 and t=6 hours post-injury by applying 5 µL to the surface of the debrided eye. Fluorescein-stained corneas were imaged again 24 h after injury. Percent re-epithelialization was assessed by analysis of imaged corneas with Image J (NIH, Bethesda, MD).
0.1% dexamethasone and 0.5% loteprednol were used as positive clinically relevant controls.

[2] = biological target: Rho-associated protein kinase 2 (ROCK2) (Homo sapiens, UniProt O75116); test: In vitro ROCKi activity, ROCK2; assay type: biochemical
Sequence of Rho-associated protein kinase 2 (ROCK2) (O75116 whole entry, species assumed): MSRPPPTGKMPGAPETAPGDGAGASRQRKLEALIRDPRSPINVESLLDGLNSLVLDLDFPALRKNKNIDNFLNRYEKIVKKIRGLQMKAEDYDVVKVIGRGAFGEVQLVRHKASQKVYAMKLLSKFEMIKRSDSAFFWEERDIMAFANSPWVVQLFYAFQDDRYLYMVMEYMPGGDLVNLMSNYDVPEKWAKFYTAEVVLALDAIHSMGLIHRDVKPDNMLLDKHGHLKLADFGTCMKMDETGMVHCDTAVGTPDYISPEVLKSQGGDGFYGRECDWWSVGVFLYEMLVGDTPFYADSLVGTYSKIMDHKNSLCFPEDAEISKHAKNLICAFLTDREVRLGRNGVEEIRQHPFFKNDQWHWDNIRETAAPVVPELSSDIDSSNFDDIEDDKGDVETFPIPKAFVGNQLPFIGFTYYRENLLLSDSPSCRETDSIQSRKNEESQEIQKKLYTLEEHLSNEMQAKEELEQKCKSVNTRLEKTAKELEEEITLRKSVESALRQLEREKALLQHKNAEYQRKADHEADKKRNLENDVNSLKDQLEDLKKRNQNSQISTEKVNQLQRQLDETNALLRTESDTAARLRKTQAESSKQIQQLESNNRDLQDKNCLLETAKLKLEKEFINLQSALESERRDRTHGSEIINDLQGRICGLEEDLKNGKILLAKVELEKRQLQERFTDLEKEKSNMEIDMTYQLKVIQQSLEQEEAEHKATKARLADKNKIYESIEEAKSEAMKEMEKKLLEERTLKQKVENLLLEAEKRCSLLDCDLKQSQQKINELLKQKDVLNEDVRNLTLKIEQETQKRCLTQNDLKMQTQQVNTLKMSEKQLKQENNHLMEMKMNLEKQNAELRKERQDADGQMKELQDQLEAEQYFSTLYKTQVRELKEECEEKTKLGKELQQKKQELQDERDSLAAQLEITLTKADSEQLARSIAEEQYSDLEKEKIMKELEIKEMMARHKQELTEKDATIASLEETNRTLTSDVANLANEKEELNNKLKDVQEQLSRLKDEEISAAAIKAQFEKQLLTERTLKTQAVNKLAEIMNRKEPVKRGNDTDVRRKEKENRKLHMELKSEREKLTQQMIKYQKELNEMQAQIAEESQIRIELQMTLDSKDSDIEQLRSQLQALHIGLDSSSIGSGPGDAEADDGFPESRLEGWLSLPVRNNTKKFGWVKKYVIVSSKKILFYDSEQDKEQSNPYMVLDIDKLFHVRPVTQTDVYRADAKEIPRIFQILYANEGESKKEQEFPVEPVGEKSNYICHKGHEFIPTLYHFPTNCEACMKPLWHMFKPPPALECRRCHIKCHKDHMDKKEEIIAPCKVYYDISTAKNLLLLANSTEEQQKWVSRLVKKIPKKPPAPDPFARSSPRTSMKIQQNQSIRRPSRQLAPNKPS
Experimental: (§1) Activities of certain compounds and components of compounds described herein were assayed. […] Rho-associated protein kinase 2=ROCK2; Rho-associated protein kinase 1=ROCK1; Porcine Trabecular Meshwork cells=PTM; Human Trabecular Meshwork cells=HTM; Splenic Interleukin-23=SPNL IL23; and Tumor Necrosis Factor α=TNFα.

[3] = system: Porcine Trabecular Meshwork cells; test: Activity in Porcine Trabecular Meshwork cells (PTM); assay type: cell-based; conditions: Sus scrofa
Experimental: as §1

[4] = biological target: Rho-associated protein kinase 1 (ROCK1) (Homo sapiens, UniProt Q13464); test: In vitro ROCKi activity, ROCK1; assay type: biochemical
Sequence of Rho-associated protein kinase 1 (ROCK1) (Q13464 whole entry, species assumed): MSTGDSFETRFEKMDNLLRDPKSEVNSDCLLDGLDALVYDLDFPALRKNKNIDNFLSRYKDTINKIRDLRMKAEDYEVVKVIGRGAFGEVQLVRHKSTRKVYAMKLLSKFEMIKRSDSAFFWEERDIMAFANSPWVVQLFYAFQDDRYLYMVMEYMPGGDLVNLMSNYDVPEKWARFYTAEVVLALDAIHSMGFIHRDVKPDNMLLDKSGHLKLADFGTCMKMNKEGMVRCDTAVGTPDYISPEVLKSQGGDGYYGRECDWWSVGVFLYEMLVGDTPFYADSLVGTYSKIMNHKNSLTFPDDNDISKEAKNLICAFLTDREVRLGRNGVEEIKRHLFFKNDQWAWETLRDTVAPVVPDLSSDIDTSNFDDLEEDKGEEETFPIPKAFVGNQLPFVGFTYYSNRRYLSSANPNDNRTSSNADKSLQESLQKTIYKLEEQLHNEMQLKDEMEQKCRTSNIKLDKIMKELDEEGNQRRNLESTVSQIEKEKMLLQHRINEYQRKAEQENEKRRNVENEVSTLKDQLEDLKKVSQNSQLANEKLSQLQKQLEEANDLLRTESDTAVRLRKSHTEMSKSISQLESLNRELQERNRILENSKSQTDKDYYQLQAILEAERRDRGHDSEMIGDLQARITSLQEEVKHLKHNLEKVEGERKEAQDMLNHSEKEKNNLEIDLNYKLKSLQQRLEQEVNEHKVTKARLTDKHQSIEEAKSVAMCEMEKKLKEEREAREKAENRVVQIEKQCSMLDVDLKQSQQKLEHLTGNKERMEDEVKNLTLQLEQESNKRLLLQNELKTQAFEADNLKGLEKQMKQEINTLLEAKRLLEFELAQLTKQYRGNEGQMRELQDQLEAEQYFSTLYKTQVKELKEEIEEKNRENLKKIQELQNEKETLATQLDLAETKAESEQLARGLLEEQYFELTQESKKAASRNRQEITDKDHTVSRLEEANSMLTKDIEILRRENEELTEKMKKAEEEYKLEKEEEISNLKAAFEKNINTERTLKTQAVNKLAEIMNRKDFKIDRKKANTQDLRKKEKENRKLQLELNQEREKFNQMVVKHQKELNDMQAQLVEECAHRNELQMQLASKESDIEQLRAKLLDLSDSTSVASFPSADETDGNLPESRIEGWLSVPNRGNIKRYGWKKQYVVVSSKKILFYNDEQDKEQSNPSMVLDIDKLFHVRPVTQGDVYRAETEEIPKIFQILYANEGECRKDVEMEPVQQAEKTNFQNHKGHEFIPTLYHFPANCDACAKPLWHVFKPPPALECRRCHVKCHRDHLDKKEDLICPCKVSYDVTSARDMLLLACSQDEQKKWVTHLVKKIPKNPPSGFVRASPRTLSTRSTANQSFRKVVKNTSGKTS
Experimental: as §1

Splenic Interleukin-23 = test: In vitro steroid activity, splenic IL-23; assay type: cell-based; conditions: read-out: IC50 (nM) SPLN IL23
Experimental: (§2) Activities of certain compounds and components of compounds described herein were assayed. […] Rho-associated protein kinase 2=ROCK2; […] Porcine Trabecular Meshwork cells=PTM; Human Trabecular Meshwork cells=HTM; Splenic Interleukin-23=SPNL IL23; and Tumor Necrosis Factor α=TNFα.

[5] = system: intraocular pressure in normotensive Dutch Belted rabbits; test: Intraocular pressure study in normotensive Dutch Belted rabbits; assay type: in vivo; conditions: single dose E5 0.1% or 0.25%
Experimental: E5 was formulated in 3.5% or 6.5% sulfobutylether-β-cyclodextrin (SBEβCD), 10 mM PBS, pH 6 and filtered with a 0.2 μm PVDF filter. A single dose was administered and the intraocular pressure was measured, e.g., with a pneumatonometer, for 32 hours post-dose.

Tumor Necrosis Factor α = test: In vitro steroid activity, TNFα; assay type: cell-based; conditions: read-out: IC50 (nM) TNFα
Experimental: as §2

[6] = system: Allergic Eye Disease (AED) in wildtype C57Bl/6 mice; test: Chronic/severe allergic eye disease (AED) model, Meibomian gland dysfunction; assay type: in vivo; conditions: 0.1% E5 in SBEβCD, topical BID 5 uL
Experimental: E5 was formulated in 5% sulfobutylether-β-cyclodextrin (SBEβCD), 10 mM PBS (0.1% NaCl) solution, pH 6 and filtered with a 0.2 μm PVDF filter. AED was induced in wildtype C57Bl/6 mice. Animals were immunized with one intraperitoneal (i.p) injection of 100 μg of OVA (InvivoGen) in 300 ng of pertussis toxin (List Biologicals) and 4 mg of aluminum hydroxide (Alum, Thermo Fisher Scientific Pierce) on Day 0. Two weeks later, mice were treated topically QD with 5 μL OVA (50 μg/μL) in sterile saline for 5 days. Mice were treated topically BID with 5 uL of vehicle (10% SBEβCD), Lotemax® (Bausch & Lomb; loteprednol etabonate ophthalmic gel 0.5%) or 0.1% E5 in SBEβCD (50:1). The first treatment was administered on Day 14 (2 weeks after initial immunization), 10 minutes prior to OVA instillation followed by a second dose >7 hrs thereafter.
Assessment was carried out following euthanasia. All four lids were gently inverted under a dissection microscope to expose the posterior lid margin. The number of plugs on the upper and lower eyelids are analyzed and scored for severity as follows: 0 indicates no plug, 1+ indicates appearance of plug. 2+ is assigned to a plug that obstructs the entire MG (Meibomian gland) orifice, 3+ is a plug with a dome that rises above the plane of the eyelid margin, and a 4 is given to a plug that covers a larger surface than the MG orifice (usually with irregular circumference edges).
Clinical parameters including eyelid edema, chemosis, conjunctival redness, and tearing were each scored on a scale of 0-3+. A score of 0 indicated no evidence of the respective parameter, 1+ is assigned if the response is mild, but distinctly greater than the naive controls; 2+ for a moderate change in the respective parameters that could be noted by slit-lamp microscopy, but not with naked eye; and 3+ if the response is severe enough that could be perceived with naked eye.
Results are shown in FIG. 9, FIG. 10, and FIG. 11.

[7] = system: Human Trabecular Meshwork cells; test: Activity in Human Trabecular Meshwork cells (HTM); assay type: cell-based
Experimental: as §1

IC50 (Splenic Interleukin-23; Splenic Interleukin-23) [nM]	IC50 [7] [nM]	IC50 [2] [nM]	Compound	re-epithelialization (recovery of epithelium) ([1]; 24 h after epithelium debridement, FIG. 12)	myeloperoxidase (MPO) levels (eye surface inflammation) ([1]; topical 5 µL at t=0 and t=6 hours post-injury, FIG. 13)	IC50 ([2]; read-out: IC50 (nM) ROCK2) [nM]	IC50 [3] [nM]	IC50 [4] [nM]	IC50 (Splenic Interleukin-23) [nM]	hyperemia ([5]; Dutch belted rabbits)	intraocular pressure (IOP) ([5]; measured for 32 hours post-dose, FIG. 14, FIG. 15)	IC50 (Tumor Necrosis Factor α) [nM]	Meibomian gland orifice plugging (number and severity of MG plugs) ([6]; FIG. 10)	neutrophil levels in Meibomian gland and conjunctiva ([6]; FIG. 11)	clinical scoring (eyelid edema, chemosis, conjunctival redness, tearing) ([6]; better than loteprednol gel, significance on day 4, FIG. 9)
			CC1(C)O[C@@H]2C[C@H]3[C@@H]4CCC5=CC(=O)C=C[C@]5(C)[C@@]4(F)[C@@H](O)C[C@]3(C)[C@]2(C(=O)COC(=O)CCCC(=O)OCc2ccc([C@@H](CN)C(=O)Nc3ccc4cnccc4c3)cc2)O1 [Example E5, 4-((S)-3-amino-1-(isoquinolin-6-ylamino)-1-oxopropan-2-yl)benzyl (2-((6aS,6bR,7S,8aS,8bS,11aR,12aS,12bS)-6b-fluoro-7-hydroxy-6a,8a,10,10-tetramethyl-4-oxo-1,2,4,6a,6b,7,8,8a,11a,12,12a,12b-dodecahydro-8bH-naphtho[2′,1′:4,5]indeno[1,2-d][1,3]dioxol-8b-yl)-2-oxoethyl) glutarate dihydrochloride]	did not affect the recovery of epithelium	significantly reduced the cornea inflammation in comparison to PBS (phosphate-buffered saline) vehicle and loteprednol groups	9	55	9	1	no hyperemia observed	lowered IOP in a dose-dependent manner	10	effective in lowering both the number and severity of the MG plugs compared to both vehicle and loteprednol	reduced the number of neutrophils in the Meibomian gland and conjunctiva	statistically significantly improved compared to vehicle
0.93			CC1(C)O[C@@H]2C[C@H]3[C@@H]4CCC5=CC(=O)C=C[C@]5(C)[C@@]4(F)[C@@H](O)C[C@]3(C)[C@]2(C(=O)CO)O1 [C, Triamcinolone, reference compound]									0.51			
	5	0.99	NC[C@@H](C(=O)Nc1ccc2cnccc2c1)c1ccc(CO)cc1 [A, reference compound]				13	1.7							
4.6	≥ 3000		C[C@@H]1C[C@H]2[C@@H]3CCC4=CC(=O)C=C[C@]4(C)[C@@]3(F)[C@@H](O)C[C@]2(C)[C@@]1(O)C(=O)CO [B, Dexamethasone, reference compound]				≥ 3000					47			

Compound	IC50 (Splenic Interleukin-23; Splenic Interleukin-23) [nM]	IC50 [7] [nM]	IC50 [2] [nM]	re-epithelialization (recovery of epithelium) ([1]; 24 h after epithelium debridement, FIG. 12)	myeloperoxidase (MPO) levels (eye surface inflammation) ([1]; topical 5 µL at t=0 and t=6 hours post-injury, FIG. 13)	IC50 ([2]; read-out: IC50 (nM) ROCK2) [nM]	IC50 [3] [nM]	IC50 [4] [nM]	IC50 (Splenic Interleukin-23) [nM]	hyperemia ([5]; Dutch belted rabbits)	intraocular pressure (IOP) ([5]; measured for 32 hours post-dose, FIG. 14, FIG. 15)	IC50 (Tumor Necrosis Factor α) [nM]	Meibomian gland orifice plugging (number and severity of MG plugs) ([6]; FIG. 10)	neutrophil levels in Meibomian gland and conjunctiva ([6]; FIG. 11)	clinical scoring (eyelid edema, chemosis, conjunctival redness, tearing) ([6]; better than loteprednol gel, significance on day 4, FIG. 9)
C[C@@H]1C[C@H]2[C@@H]3CCC4=CC(=O)C=C[C@]4(C)[C@@]3(F)[C@@H](O)C[C@]2(C)[C@@]1(O)C(=O)COC(=O)CCCC(=O)OCc1ccc([C@@H](CN)C(=O)Nc2ccc3cnccc3c2)cc1 [Example E15]	12					4	40	7				147			
